Type in all cases: cell-based
For assay [1], the system named is SK-OV-3. As to the kind of experiment: In vitro cytotoxicity (CCK-8) in SK-OV-3 cells. Conditions: Homo sapiens. The method, then: (§1) Cytotoxic potencies of the compounds are assessed in flat-bottomed 96-well cell culture plates (Corning Costar) using cell counting Kit-8 (CCK-8) assay (Shanghai Life Lab Biotech Co., Ltd.). Briefly, human tumor cells (1,000-10,000 cells/well, depending on the cell line), in the appropriate culture medium are incubated, with the compounds, or with conjugates in the presence or absence of an excess of the corresponding unconjugated antibodies, for 120 hours, at 37° C., 5% CO2.
(§2) Dispensed 175 μL cell suspension in 96-well plate at 1500 cells per well and incubate for 24 hours in a humidified incubator (37° C., 5% CO2). Added 25 μL various concentrations of compound as a 5× solution into the cell culture medium (Fetal bovine serum, Invitrogen) in the plate and incubated for 120 hours in the incubator. Thawed CCK-8 on the bench top or in a 37° C. water bath, added 10 μL of CCK-8 to each well of the incubated plate (be careful not introducing air bubbles into the wells since they would interfere with the O. D. reading) and then further incubated for 1-4 hours in the incubator. Measured the absorbance at 450 nm using a SpectraMax i3x Microplate Reader and calculated the cell inhibition rate. The IC50 curves were generated along with the IC50 values by using GraphPad Prism software.

In assay [2] the test system is NCI-H2110. As to the kind of experiment: In vitro cytotoxicity (CCK-8) in NCI-H2110 cells. As to conditions: Homo sapiens. The method, then:
as §1, §2

Assay [3] deals with HCC 827. As to the kind of experiment: In vitro cytotoxicity (CCK-8) in HCC 827 cells. As to conditions: Homo sapiens. Here is the method:
as §1, §2

In assay [4] the test system is OVCAR-3. Description: In vitro cytotoxicity (CCK-8) in OVCAR-3 cells. As to conditions: Homo sapiens. The method, then: as §1, §2
In assay [5] the test system is SK-BR-3. Description: In vitro cytotoxicity (CCK-8) in SK-BR-3 cells. Conditions: Homo sapiens, SK-BR-3 cell line, 120 hours incubation. Here is the method: as §1, §2
Assay [6] concerns NCI-N87. Description: In vitro cytotoxicity (CCK-8) in NCI-N87 cells. As to conditions: Homo sapiens, NCI-N87 cell line, 120 hours incubation. Here is the method:
as §1, §2

Assay [7] has as its system BR 474. As to the kind of experiment: In vitro cytotoxicity (CCK-8) in BR 474 cells. Conditions: Homo sapiens, BR 474 cell line, 120 hours incubation. The method, then: as §1, §2
For assay [8], the system named is JMT-1. As to the kind of experiment: In vitro cytotoxicity (CCK-8) in JMT-1 cells. Conditions: Homo sapiens, JMT-1 cell line, 120 hours incubation. The method, then:
as §1, §2

The mark [9] stands for this setting: SK-OV-3 cell line, 120 hours incubation, CCK-8, read-out: IC50.
[10] abbreviates: NCI-H2110 cell line, 120 hours incubation, CCK-8, read-out: IC50.
Where [11] appears, read: HCC827, HCC 827 cell line, 120 hours incubation, CCK-8, read-out: IC50.
The mark [12] stands for this setting: OVCAR-3 cell line, 120 hours incubation, CCK-8, read-out: IC50.

Structures are written as SMILES. Where two headings read alike, the source gives them in different places. Square brackets hold non-standard residues; d marks the D form. Peptide text beside a SMILES is read from it. * marks the point of attachment. Dolaproine = CO[C@@H]([C@@H]1CCCN1)[C@@H](C)C(=O)O; Phe(βS-OH) = N[C@H](C(=O)O)[C@@H](O)c1ccccc1; Dil = CC[C@H](C)[C@H](NC)[C@@H](CC(=O)O)OC; X1 = CC(C)[C@@H](C(=O)*)N(C)CCS; X2 = CSCCN(C)[C@H](C(=O)*)C(C)C

For `CC[C@@]1(O)C(=O)OCc2c1cc1n(c2=O)Cc2cc3c(CCCCO)c(C)c(F)cc3nc2-1`, the IC50 (usually the point on the concentration scale where inhibition reaches its midpoint) was found to be 0.36 nM in assay [1] (setting [9]); 0.85 nM in assay [2] (setting [10]); 0.78 nM in assay [3] (setting [11]); 0.1 nM in assay [4] (setting [12]); 0.014 nM in assay [5]; 2.6 nM in assay [6]. The IC50 was above 1000 nM in assay [7] and 14 nM in assay [8].
For `CC[C@@]1(O)C(=O)OCc2c1cc1n(c2=O)Cc2c-1nc1cc(F)c(C)c3c1c2[C@@H](NC(=O)CO)CC3`, the IC50 in assay [1] (SK-OV-3, 120 h) is 3.6 nM; in assay [2] (NCI-H2110, 120 h), 4.1 nM; in assay [3] (HCC827, 120 h) it was 1.8 nM; in assay [4] (OVCAR-3, 120 h) it was 0.2 nM.
`CC[C@H](C)[C@@H]([C@@H](CC(=O)N1CCC[C@H]1[C@H](OC)[C@@H](C)C(=O)N[C@H](C)[C@@H](O)c1ccccc1)OC)N(C)C(=O)[C@@H](NC(=O)[C@H](C(C)C)N(C)CCS)C(C)C`: the half-inhibitory concentration (IC50) in assay [1] (setting [9]) was 7.7 nM; in assay [2] (setting [10]), 10 nM; in assay [5] it was 1.7 nM; in assay [6] it was 4.8 nM; in assay [7] it was 5.1 nM; in assay [8] it was 2.1 nM.
Regarding `CC[C@H](C)[C@@H]([C@@H](CC(=O)N1CCC[C@H]1[C@H](OC)[C@@H](C)C(=O)N[C@H](C)[C@@H](O)c1ccccc1)OC)N(C)C(=O)[C@@H](NC(=O)[C@H](C(C)C)N(C)CCSC)C(C)C`, the figures for the IC50 in assay [5], in assay [6] and in assay [8] were 0.41 nM, 0.94 nM and 0.49 nM, respectively.
`CC[C@H](C)[C@@H]([C@@H](CC(=O)N1CCC[C@H]1[C@H](OC)[C@@H](C)C(=O)N[C@H](C(=O)O)[C@@H](O)c1ccccc1)OC)N(C)C(=O)[C@@H](NC(=O)[C@H](C(C)C)N(C)CCS)C(C)C` (X1-V[Dil][Dolaproine][Phe(βS-OH)]-OH): the IC50 in assay [1] (setting [9]) worked out at 38 nM; in assay [2] (setting [10]), 12 nM; in assay [3] (setting [11]), 108 nM; in assay [4] (setting [12]) it was 67.6 nM.
For `CC[C@H](C)[C@@H]([C@@H](CC(=O)N1CCC[C@H]1[C@H](OC)[C@@H](C)C(=O)N[C@H](C(=O)O)[C@@H](O)c1ccccc1)OC)N(C)C(=O)[C@@H](NC(=O)[C@H](C(C)C)N(C)CCSC)C(C)C` (X2-V[Dil][Dolaproine][Phe(βS-OH)]-OH), the IC50 amounted to 13.6 nM in assay [5], 32.3 nM in assay [6] and 36.1 nM in assay [8].

These data come from US20240108744A1, “AURISTATIN DERIVATIVES AND CONJUGATES THEREOF” (priority 2022, published 2024).
